Some results are limits rather than exact numbers.

Sequence of PIKFYVE (Q9Y2I7 whole entry): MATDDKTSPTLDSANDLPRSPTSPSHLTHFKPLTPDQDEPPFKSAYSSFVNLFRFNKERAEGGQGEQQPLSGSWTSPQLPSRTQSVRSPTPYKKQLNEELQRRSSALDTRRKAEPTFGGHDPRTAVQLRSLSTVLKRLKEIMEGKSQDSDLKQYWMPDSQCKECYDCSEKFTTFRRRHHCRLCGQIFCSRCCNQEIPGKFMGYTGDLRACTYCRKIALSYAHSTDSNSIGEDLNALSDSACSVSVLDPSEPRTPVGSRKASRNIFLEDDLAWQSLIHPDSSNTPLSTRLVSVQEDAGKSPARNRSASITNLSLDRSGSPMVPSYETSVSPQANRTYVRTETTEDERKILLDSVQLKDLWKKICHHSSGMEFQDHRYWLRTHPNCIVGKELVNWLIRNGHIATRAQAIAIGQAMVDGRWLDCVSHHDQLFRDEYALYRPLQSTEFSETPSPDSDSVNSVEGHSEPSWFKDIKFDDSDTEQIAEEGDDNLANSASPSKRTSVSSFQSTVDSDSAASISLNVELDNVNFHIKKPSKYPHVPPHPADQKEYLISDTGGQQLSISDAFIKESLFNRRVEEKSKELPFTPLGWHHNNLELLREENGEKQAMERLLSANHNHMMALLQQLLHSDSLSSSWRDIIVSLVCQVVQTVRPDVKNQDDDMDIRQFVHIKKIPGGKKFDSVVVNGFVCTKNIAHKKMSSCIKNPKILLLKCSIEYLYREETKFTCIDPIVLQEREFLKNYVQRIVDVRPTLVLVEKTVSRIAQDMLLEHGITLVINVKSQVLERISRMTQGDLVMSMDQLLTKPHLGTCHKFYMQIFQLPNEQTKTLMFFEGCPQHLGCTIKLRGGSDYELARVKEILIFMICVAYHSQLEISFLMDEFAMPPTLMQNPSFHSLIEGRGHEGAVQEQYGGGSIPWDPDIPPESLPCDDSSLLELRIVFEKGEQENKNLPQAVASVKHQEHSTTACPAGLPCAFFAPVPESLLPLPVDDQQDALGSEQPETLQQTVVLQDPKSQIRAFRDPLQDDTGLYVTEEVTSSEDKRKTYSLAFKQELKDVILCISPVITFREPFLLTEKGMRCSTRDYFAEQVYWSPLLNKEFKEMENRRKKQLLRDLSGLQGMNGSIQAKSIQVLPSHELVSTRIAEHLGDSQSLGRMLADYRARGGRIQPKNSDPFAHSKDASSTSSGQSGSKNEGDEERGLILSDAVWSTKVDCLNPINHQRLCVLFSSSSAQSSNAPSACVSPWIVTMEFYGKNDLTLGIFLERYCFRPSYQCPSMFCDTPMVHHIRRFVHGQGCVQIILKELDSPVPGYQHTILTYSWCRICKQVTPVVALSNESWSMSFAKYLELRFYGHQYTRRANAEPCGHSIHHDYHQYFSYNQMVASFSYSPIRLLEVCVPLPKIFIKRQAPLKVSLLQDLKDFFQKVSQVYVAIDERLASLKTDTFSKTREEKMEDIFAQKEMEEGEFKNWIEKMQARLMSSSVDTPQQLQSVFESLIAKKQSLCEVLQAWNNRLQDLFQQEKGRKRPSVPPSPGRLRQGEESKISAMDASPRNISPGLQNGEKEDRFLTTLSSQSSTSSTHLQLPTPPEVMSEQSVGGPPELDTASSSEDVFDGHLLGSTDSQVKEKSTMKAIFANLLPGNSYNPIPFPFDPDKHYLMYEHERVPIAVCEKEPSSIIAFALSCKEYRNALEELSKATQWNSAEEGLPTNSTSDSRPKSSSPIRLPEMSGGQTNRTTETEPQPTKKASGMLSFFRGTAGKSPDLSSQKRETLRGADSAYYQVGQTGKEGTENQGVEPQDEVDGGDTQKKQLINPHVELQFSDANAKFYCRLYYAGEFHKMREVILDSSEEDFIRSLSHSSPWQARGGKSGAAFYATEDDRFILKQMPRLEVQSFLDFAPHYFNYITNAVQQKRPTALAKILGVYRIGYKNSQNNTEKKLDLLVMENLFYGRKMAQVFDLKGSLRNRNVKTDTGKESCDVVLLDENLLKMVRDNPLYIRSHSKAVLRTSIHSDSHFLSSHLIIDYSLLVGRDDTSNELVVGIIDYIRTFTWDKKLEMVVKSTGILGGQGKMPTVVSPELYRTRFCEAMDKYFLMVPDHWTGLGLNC

In the assay the target is PIKFYVE (Homo sapiens, UniProt Q9Y2I7). Briefly: PIKFYVE assay (luciferase ADP-Glo kinase assay, Promega). The class given is biochemical. The following applies: Table 2. As to the method:
The activity of Compounds 1-20 was measured using a PIKFYVE assay (luciferase ADP-Glo kinase assay available from Promega Corp. of Madison, WI).
The activity of Compounds 39-90 was also measured using a PIKFYVE assay (luciferase ADP-Glo kinase assay available from Promega Corp. of Madison, WI).
The term IC50 denotes the concentration needed to halve the response being measured. With `c1ccc(-c2cn(-c3cc(N4CCOCC4)nc(OCCc4ccccn4)n3)cn2)cc1` [Compound 39], the 50% inhibitory concentration (IC50) was under 10000 nM.
To `Clc1ccc(-c2ccn(-c3cc(N4CCOCC4)nc(OCCc4ccccn4)n3)n2)cc1` [Compound 40] belongs under 500 nM.
The value for `Fc1ccc(-c2cnn(-c3cc(N4CC[C@H]5OCC[C@H]54)nc(CCCc4ccccn4)n3)c2)cc1` [Compound 41] was under 10000 nM; that for `Cc1cccc(-c2ccn(-c3cc(N4CCOCC4)nc(Cc4ccccc4)n3)n2)c1` [Compound 42] was under 500 nM.
With `c1cc(-c2cc(N3CCOCC3)nc(OCC3CCCO3)n2)n[nH]1` (stereo not shown) [Compound 45], the half-inhibitory concentration (IC50) was under 500 nM.
To `Cc1cccc(-c2ccn(-c3nc(NCCc4ccccn4)cc(N4CCOCC4)n3)n2)c1` [Compound 46] belongs under 50 nM.
For the molecule `Cc1cccc(-c2ccn(-c3nc(NCCc4cnccn4)cc(N4CCOCC4)n3)n2)c1` [Compound 47], the half-maximal inhibitory concentration (IC50) was under 50 nM.
The value for `Cc1cccc(-c2ccn(-c3cc(N4CC[C@H]5OCC[C@H]54)nc(C(O)CO)n3)n2)c1` (stereo partly shown) [Compound 48] was under 500 nM; that for `COCC(O)c1nc(N2CCOCC2)cc(-n2ccc(-c3cccc(C)c3)n2)n1` (stereo not shown) [Compound 49] was under 50 nM; that for `CC(C)(C)c1ccn(-c2cc(N3CCOCC3)nc(OCC(O)CO)n2)n1` (stereo not shown) [Compound 51] was under 10000 nM.
To `OCC(O)COc1nc(N2CCOCC2)cc(-n2cc3ccccc3n2)n1` (stereo not shown) [Compound 52] belongs under 500 nM.
`OCC(O)COc1nc(N2CCOCC2)cc(-n2ncc3ccccc32)n1` (stereo not shown) [Compound 53] gave an IC50 of under 500 nM.
Regarding `Cc1cccc(-c2ccn(-c3cc(N4CCOCC4)nc(OC[C@@H](O)c4ccccc4)n3)n2)c1` [Compound 57], the half-maximal inhibitory concentration (IC50) was under 5 nM.
Turning to `Cc1cccc(-c2ccn(-c3cc(N4CCOCC4)nc(OC[C@H](O)c4ccccc4)n3)n2)c1` [Compound 58], the IC50 is under 5 nM.
The molecule `COc1nc(N2CCOCC2)cc(-n2ccc(-c3cccc(C)c3)n2)n1` [Compound 59] returned an IC50 of under 50 nM.
To `Cc1cccc(-c2ccn(-c3cc(N4CCOCC4)ncn3)n2)c1` [Compound 60] belongs under 500 nM.
Molecule `Cc1cccc(-c2ccn(-c3cc(N4CCOCC4)nc(N4CCCC4=O)n3)n2)c1` [Compound 61] came in with an IC50 of under 50 nM.
In turn, `Cc1cn(-c2cc(N3CCOCC3)nc(OCCc3cnn(C)c3)n2)nc1-c1ccccc1` [Compound 63] showed an IC50 of under 500 nM.
To `COCc1nc(N2CCOCC2)cc(-n2ccc(-c3ccccc3)n2)n1` [Compound 69] belongs under 50 nM; to `CCOC(=O)c1ccn(-c2cc(N3CCOCC3)nc(OCCc3ccn(C)n3)n2)n1` [Compound 70], under 50 nM; to `CN(C)Cc1cc(-c2ccccc2)nn1-c1cc(N2CCOCC2)nc(OCCc2cnn(C)c2)n1` [Compound 75], under 50 nM.
To `COCc1cc(-c2ccccc2)n(-c2cc(N3CCOCC3)nc(OCCc3cnn(C)c3)n2)n1` [Compound 77] belongs under 50 nM.
The value for `COC(c1ccccc1)c1nc(N2CCOCC2)cc(-n2ccc(-c3ccccc3)n2)n1` (stereo not shown) [Compound 78] was under 50 nM.
With `Cc1cccc(-c2ccn(-c3cc(N4CCOCC4)nc(C(F)(F)F)n3)n2)c1` [Compound 82], the 50% inhibitory concentration (IC50) is under 50 nM.
With `COc1nc(N2CCOCC2)c(C)c(-n2ccc(-c3cccc(C)c3)n2)n1` [Compound 83], the IC50 was under 500 nM.
To `OCc1nc(N2CCOCC2)cc(-n2ccc(-c3ccccc3)n2)n1` [Compound 84] belongs under 50 nM; to `CNc1nc(N2CCOCC2)cc(-n2nc(-c3ccccc3)cc2C)n1` [Compound 85], under 500 nM; to `COc1cc(N2CCOCC2)nc(-n2ccc(-c3cccc(C)c3)n2)n1` [Compound 87], under 500 nM.

These data come from patent US20260130921A1, “TREATMENT OF VIRAL INFECTIONS WITH COMBINATION OF PIKFYVE KINASE INHIBITORS AND TMPRSS-2 INHIBITORS” (AcuraStem Incorporated, priority 2020, published 2026).
